For orientation: EC50 means the concentration that produces a half-maximal response.

SMILES strings stand for the structures.

For the assay, the target named is T1, GLP-1R (Homo sapiens, UniProt P43220).
T1 construct: host or cells: GLP-1R CRE-bla CHO-K1 cells
T1 sequence (P43220 24-463): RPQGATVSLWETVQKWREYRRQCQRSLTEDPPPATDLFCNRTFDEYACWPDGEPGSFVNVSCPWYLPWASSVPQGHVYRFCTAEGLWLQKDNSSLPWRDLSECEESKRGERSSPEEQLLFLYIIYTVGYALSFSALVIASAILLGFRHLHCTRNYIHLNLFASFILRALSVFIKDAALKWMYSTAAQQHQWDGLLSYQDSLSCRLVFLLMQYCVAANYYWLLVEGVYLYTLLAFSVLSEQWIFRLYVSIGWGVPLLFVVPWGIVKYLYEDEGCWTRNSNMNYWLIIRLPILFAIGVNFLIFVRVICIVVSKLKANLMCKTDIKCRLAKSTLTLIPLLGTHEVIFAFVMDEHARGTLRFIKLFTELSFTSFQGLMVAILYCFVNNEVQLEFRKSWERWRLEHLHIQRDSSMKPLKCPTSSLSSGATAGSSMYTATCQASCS
T1 sequence (P01275 100-127 partner limits assumed): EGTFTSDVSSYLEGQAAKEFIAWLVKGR
Briefly: EC20 GLP-1(9-36) PAM cAMP assay: dose response of compound in the presence of fixed concentration of GLP-1(9-36). It is filed as cell-based. As to conditions: GLP-1R CRE-bla CHO-K1 cells, compound dose response with fixed concentration of GLP-1(9-36), read-out: EC20 GLP-1(9-36) PAM EC50. The method, boiled down:
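Positive allosteric modulation read as cAMP accumulation: compound titrations (12 points) combined with an EC20 level of GLP-1(9-36) on CHO-K1 GLP-1R CRE-bla cells, IBMX present, 30 min, 37 °C, pH 7.4 buffer. Luminescence converted to cAMP via standards; non-linear fit gave EC50 and Emax.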
Turning to `CCC[C@H]1CC[C@H](C2CCN(c3cnc(-c4ccc(C[C@H](NC(=O)c5ccc(C(C)(C)C)s5)C(=O)N[C@H]5C[C@H](C(=O)O)C5)cc4)nc3)CC2)CC1` [Compound 1447], the EC50 was less than 800 nM.
For `CCC[C@H]1CC[C@H](C2CCN(c3cnc(-c4ccc(C[C@H](NC(=O)c5ccc(C(C)(C)C)s5)C(=O)N5C6CCC5[C@@H](C(=O)O)C6)cc4)nc3)CC2)CC1` (stereo partly shown) [Compound 1448], the EC50 lay in the range of 5000 to 10000 nM.
Regarding `CCC[C@H]1CC[C@H](C2CCN(c3cnc(-c4ccc(C[C@H](NC(=O)c5ccc(C(C)(C)C)s5)C(=O)N[C@@H](C(=O)O)C(C)C)cc4)nc3)CC2)CC1` [Compound 1449], the EC50 is less than 800 nM.
To `CCC[C@H]1CC[C@H](C2CCN(c3cnc(-c4ccc(C[C@H](NC(=O)c5ccc(C(C)(C)C)s5)C(=O)N5CC(C)(C(=O)O)C5)cc4)nc3)CC2)CC1` [Compound 1450] belongs less than 800 nM; to `CCC[C@H]1CC[C@H](C2CCN(c3cnc(-c4ccc(C[C@H](NC(=O)c5ccc(C(C)(C)C)s5)C(=O)N5CC(F)(C(=O)O)C5)cc4)nc3)CC2)CC1` [Compound 1451], 800 to 2500 nM.
`CCC[C@H]1CC[C@H](C2CCN(c3cnc(-c4ccc(C[C@H](NC(=O)c5ccc(C(C)(C)C)s5)C(=O)N5CC(OC)(C(=O)O)C5)cc4)nc3)CC2)CC1` [Compound 1452]: the EC50 is less than 800 nM.
For the molecule `CCC[C@H]1CC[C@H](C2CCN(c3cnc(-c4ccc(C[C@H](NC(=O)c5ccc(C(C)(C)C)s5)C(=O)NC5(C(=O)O)CC5)cc4)nc3)CC2)CC1` [Compound 1453], the EC50 was less than 800 nM.
Consider `CCC[C@H]1CC[C@H](C2CCN(c3cnc(-c4ccc(C[C@H](NC(=O)c5ccc(C(C)(C)C)s5)C(=O)NC(C(=O)O)c5ccco5)cc4)nc3)CC2)CC1` (stereo partly shown) [Compound 1454], for which the concentration giving a half-maximal response (EC50) is less than 800 nM.
Regarding `CCC[C@H]1CC[C@H](C2CCN(c3cnc(-c4ccc(C[C@H](NC(=O)c5ccc(C(C)(C)C)s5)C(=O)N5CCCC[C@H]5C(=O)O)cc4)nc3)CC2)CC1` [Compound 1455], the concentration for a half-maximal effect (EC50) is less than 800 nM.
The figure for `CCC[C@H]1CC[C@H](C2CCN(c3cnc(-c4ccc(C[C@H](NC(=O)c5ccc(C(C)(C)C)s5)C(=O)N5CCC[C@H](C(=O)O)C5)cc4)nc3)CC2)CC1` [Compound 1456] is less than 800 nM; for `CCC[C@H]1CC[C@H](C2CCN(c3cnc(-c4ccc(C[C@H](NC(=O)c5ccc(C(C)(C)C)s5)C(=O)N5CCC(C(=O)O)CC5)cc4)nc3)CC2)CC1` [Compound 1457] it is less than 800 nM; for `CCC[C@H]1CC[C@H](C2CCN(c3cnc(-c4ccc(C[C@H](NC(=O)c5ccc(C(C)(C)C)s5)C(=O)NC(CCCOC)C(=O)O)cc4)nc3)CC2)CC1` (stereo partly shown) [Compound 1458] it is less than 800 nM.
Consider `CCC[C@H]1CC[C@H](C2CCN(c3cnc(-c4ccc(C[C@H](NC(=O)c5ccc(C(C)(C)C)s5)C(=O)NC(CN(C)C)C(=O)O)cc4)nc3)CC2)CC1` (stereo partly shown) [Compound 1459], for which the EC50 is less than 800 nM.
As to `CCC[C@H]1CC[C@H](C2CCN(c3cnc(-c4ccc(C[C@H](NC(=O)c5ccc(C(C)(C)C)s5)C(=O)N[C@H](CC(N)=O)C(=O)O)cc4)nc3)CC2)CC1` [Compound 1460], the EC50 was less than 800 nM.
Turning to `CCC[C@H]1CC[C@H](C2CCN(c3cnc(-c4ccc(C[C@H](NC(=O)c5ccc(C(C)(C)C)s5)C(=O)NCC(=O)O)cc4)nc3)CC2)CC1` [Compound 1461], the concentration giving a half-maximal response (EC50) is less than 800 nM.
To `CCC[C@H]1CC[C@H](C2CCN(c3cnc(-c4ccc(C[C@H](NC(=O)c5ccc(C(C)(C)C)s5)C(=O)N[C@H](CC(C)C)C(=O)O)cc4)nc3)CC2)CC1` [Compound 1462] belongs 800 to 2500 nM; to `CCC[C@H]1CC[C@H](C2CCN(c3cnc(-c4ccc(C[C@H](NC(=O)c5ccc(C(C)(C)C)s5)C(=O)N[C@@H](CC(=O)O)C(=O)O)cc4)nc3)CC2)CC1` [Compound 1463], less than 800 nM; to `C=C(N[C@H](Cc1ccccc1)C(=O)O)[C@H](Cc1ccc(-c2ncc(N3CCC([C@H]4CC[C@H](CCC)CC4)CC3)cn2)cc1)NC(=O)c1ccc(C(C)(C)C)s1` [Compound 1464], less than 800 nM.
The figure for `CCC[C@H]1CC[C@H](C2CCN(c3cnc(-c4ccc(C[C@H](NC(=O)c5ccc(C(C)(C)C)s5)C(=O)N[C@@H](CCCNC(=N)N)C(=O)O)cc4)nc3)CC2)CC1` [Compound 1465] is less than 800 nM.
As for `CCC[C@H]1CC[C@H](C2CCN(c3cnc(-c4ccc(C[C@H](NC(=O)c5ccc(C(C)(C)C)s5)C(=O)NC(C)(C)C(=O)O)cc4)nc3)CC2)CC1` [Compound 1466], the half-maximal effective concentration (EC50) is less than 800 nM.
The figure for `CCC[C@H]1CC[C@H](C2CCN(c3cnc(-c4ccc(C[C@H](NC(=O)c5ccc(C(C)(C)C)s5)C(=O)N[C@@H](CO)C(=O)O)cc4)nc3)CC2)CC1` [Compound 1467] is less than 800 nM; for `CCC[C@H]1CC[C@H](C2CCN(c3cnc(-c4ccc(C[C@H](NC(=O)c5ccc(C(C)(C)C)s5)C(=O)N[C@H](C)CC(=O)O)cc4)nc3)CC2)CC1` [Compound 1468] it is less than 800 nM.
With `CCC[C@H]1CC[C@H](C2CCN(c3cnc(-c4ccc(C[C@H](NC(=O)c5ccc(C(C)(C)C)s5)C(=O)N[C@H](C(=O)O)[C@@H](C)O)cc4)nc3)CC2)CC1` [Compound 1469], the EC50 was less than 800 nM.
The figure for `CCC[C@H]1CC[C@H](C2CCN(c3cnc(-c4ccc(C[C@H](NC(=O)c5ccc(C(C)(C)C)s5)C(=O)NC5(C(=O)O)CCCC5)cc4)nc3)CC2)CC1` [Compound 1470] is less than 800 nM; for `CCC[C@H]1CC[C@H](C2CCN(c3cnc(-c4ccc(C[C@H](NC(=O)c5ccc(C(C)(C)C)s5)C(=O)NC(CCN)C(=O)O)cc4)nc3)CC2)CC1` (stereo partly shown) [Compound 1471] it is less than 800 nM.
The figure for `CCC[C@H]1CC[C@H](C2CCN(c3cnc(-c4ccc(C[C@H](NC(=O)c5ccc(C(C)(C)C)s5)C(=O)N[C@@H](CN)C(=O)O)cc4)nc3)CC2)CC1` [Compound 1472] is less than 800 nM; for `CCC[C@H]1CC[C@H](C2CCN(c3cnc(-c4ccc(C[C@H](NC(=O)c5ccc(C(C)(C)C)s5)C(=O)N[C@H](CN)C(=O)O)cc4)nc3)CC2)CC1` [Compound 1473] it is less than 800 nM; for `CCc1ccc(C2CCN(c3cnc(-c4ccc(C[C@H](NC(=O)c5ccc(C(C)(C)C)s5)C(=O)N5CC(C(=O)O)C5)cc4)nc3)CC2)cc1` [Compound 1474] it is less than 800 nM.
As to `Cc1ccccc1C1CCN(c2cnc(-c3ccc(C[C@H](NC(=O)c4ccc(C(C)(C)C)s4)C(=O)N4CC(C(=O)O)C4)cc3)nc2)CC1` [Compound 1475], the 50% effective concentration (EC50) is less than 800 nM.
To `Cc1cccc(C2CCN(c3cnc(-c4ccc(C[C@H](NC(=O)c5ccc(C(C)(C)C)s5)C(=O)N5CC(C(=O)O)C5)cc4)nc3)CC2)c1` [Compound 1476] belongs less than 800 nM; to `COc1cccc(C2CCN(c3cnc(-c4ccc(C[C@H](NC(=O)c5ccc(C(C)(C)C)s5)C(=O)N5CC(C(=O)O)C5)cc4)nc3)CC2)c1` [Compound 1477], less than 800 nM.
To `CC(C)(C)c1ccc(C(=O)N[C@@H](Cc2ccc(-c3ncc(N4CCC(c5ccc(Cl)cc5)CC4)cn3)cc2)C(=O)N2CC(C(=O)O)C2)s1` [Compound 1478] belongs 800 to 2500 nM; to `CC(C)(C)c1ccc(C(=O)N[C@@H](Cc2ccc(-c3ncc(N4CCC(c5cccc(Cl)c5)CC4)cn3)cc2)C(=O)N2CC(C(=O)O)C2)s1` [Compound 1479], 800 to 2500 nM.
Consider `CC(C)(C)c1ccc(C(=O)N[C@@H](Cc2ccc(-c3ncc(N4CCC(c5ccccc5Cl)CC4)cn3)cc2)C(=O)N2CC(C(=O)O)C2)s1` [Compound 1480], for which the EC50 lay in the range of 800 to 2500 nM.

Values taken from patent publication US10034886B2, “GLP-1 receptor modulators” (Celgene International II SÀRL, priority 2014, dated 2018).
